Activity calls are given as the source filed them. The rule behind the calls is not given here.
Tests used:
Acetylcholinesterase = target: T1, Acetylcholinesterase (Rattus norvegicus, UniProt P37136); assay: Inhibition of AchE in Rattus norvegicus (rat) cortex homogenates by Ellman's method
T1 sequence (P37136 whole entry): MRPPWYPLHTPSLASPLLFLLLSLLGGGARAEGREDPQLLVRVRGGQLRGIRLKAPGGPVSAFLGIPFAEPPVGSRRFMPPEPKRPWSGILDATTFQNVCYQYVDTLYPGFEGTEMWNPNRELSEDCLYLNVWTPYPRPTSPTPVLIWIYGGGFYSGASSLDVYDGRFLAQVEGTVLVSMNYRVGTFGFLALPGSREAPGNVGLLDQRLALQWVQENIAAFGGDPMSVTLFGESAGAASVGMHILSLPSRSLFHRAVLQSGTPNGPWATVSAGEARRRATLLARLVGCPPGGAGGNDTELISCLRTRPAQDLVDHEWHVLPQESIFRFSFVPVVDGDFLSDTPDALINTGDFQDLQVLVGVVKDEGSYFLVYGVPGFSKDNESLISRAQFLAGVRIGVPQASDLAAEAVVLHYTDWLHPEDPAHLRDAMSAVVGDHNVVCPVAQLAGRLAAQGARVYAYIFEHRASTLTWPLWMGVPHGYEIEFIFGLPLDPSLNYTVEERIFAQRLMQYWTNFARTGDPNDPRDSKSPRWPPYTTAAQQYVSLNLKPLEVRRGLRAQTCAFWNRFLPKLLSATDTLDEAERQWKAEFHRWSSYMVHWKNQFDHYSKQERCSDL

Mus musculus [1] = assay: Antiamnestic activity in scopolamine-induced Swiss albino Mus musculus (mouse) memory deficit model assessed as increase in time spent in target quadrant at 2 to 10 mg/kg, ip administered 30 min prior to scopolamine challenge measured on day 5 by Morris water maze test relative to vehicle-treated control; type: functional, organism-based
Mus musculus [2] = assay: Antiamnestic activity in scopolamine-induced Swiss albino Mus musculus (mouse) memory deficit model assessed as escape latency time at 10 mg/kg, ip administered 30 min prior to scopolamine challenge measured on day 4 by Morris water maze test (reference value: 78.7 +/- 5.7 secs); type: functional; conditions: route intraperitoneal
Mus musculus [3] = assay: Antiamnestic activity in scopolamine-induced Swiss albino Mus musculus (mouse) memory deficit model assessed as escape latency time at 5 mg/kg, ip administered 30 min prior to scopolamine challenge measured on day 4 by Morris water maze test (reference value: 78.7 +/- 5.7 secs); type: functional; conditions: route intraperitoneal
Mus musculus [4] = assay: Antiamnestic activity in scopolamine-induced Swiss albino Mus musculus (mouse) memory deficit model assessed as escape latency time at 2 mg/kg, ip administered 30 min prior to scopolamine challenge measured on day 4 by Morris water maze test (reference value: 78.7 +/- 5.7 secs); type: functional; conditions: route intraperitoneal
Mus musculus [5] = assay: Antiamnestic activity in scopolamine-induced Swiss albino Mus musculus (mouse) memory deficit model assessed as escape latency time at 10 mg/kg, ip administered 30 min prior to scopolamine challenge measured on day 1 by Morris water maze test (reference value: 89.7 +/- 3.8 secs); type: functional; conditions: route intraperitoneal
Mus musculus [6] = assay: Antiamnestic activity in scopolamine-induced Swiss albino Mus musculus (mouse) memory deficit model assessed as escape latency time at 2 mg/kg, ip administered 30 min prior to scopolamine challenge measured on day 1 by Morris water maze test (reference value: 89.7 +/- 3.8 secs); type: functional; conditions: route intraperitoneal
Mus musculus [7] = assay: Antiamnestic activity in scopolamine-induced Swiss albino Mus musculus (mouse) memory deficit model assessed as escape latency time at 5 mg/kg, ip administered 30 min prior to scopolamine challenge measured on day 1 by Morris water maze test (reference value: 89.7 +/- 3.8 secs); type: functional; conditions: route intraperitoneal
Mus musculus [8] = assay: Antiamnestic activity in scopolamine-induced Swiss albino Mus musculus (mouse) memory deficit model assessed as increase in time spent in target quadrant at 25 mg/kg, ip administered 30 min prior to scopolamine challenge measured on day 5 by Morris water maze test relative to vehicle-treated control; type: functional, organism-based; set-up: dose 25 mg/kg

| Compound | IC50 (Acetylcholinesterase) [nM] | other results |
| --- | --- | --- |
| COc1ccc(C2CC(=O)c3ccccc3O2)cc1OC(=O)Nc1ccccc1 (stereo unspecified) | 27.6 |  |
| COc1cc(OC)c2c(c1)OC(c1ccccc1O)CC2=O (stereo unspecified) | 120 |  |
| COc1cc(C2CC(=O)c3ccccc3O2)cc(OC)c1OC(=O)Nc1ccccc1 (stereo unspecified) | 19.3 |  |
| COc1cc(C2CC(=O)c3ccccc3O2)ccc1OC(=O)Nc1ccccc1 (stereo unspecified) | 21.9 |  |
| COc1cc(C2CC(=O)c3ccccc3O2)cc([N+](=O)[O-])c1O (stereo unspecified) | 144 |  |
| COc1cc(OO)cc2c1C(=O)CC(c1ccccc1OC(=O)Nc1ccccc1)O2 (stereo unspecified) | 21.5 |  |
| COc1cc(C2CC(=O)c3ccccc3O2)cc([N+](=O)[O-])c1OC(=O)Nc1ccccc1 (stereo unspecified) | 30.5 |  |
| COc1cc(OC)c2c(c1)OC(c1ccc(O)cc1)CC2=O (stereo unspecified) | 118 |  |
| COc1cc(OC)c2c(c1)OC(c1cccc(OC(=O)Nc3ccccc3)c1)CC2=O (stereo unspecified) | 19.6 |  |
| COc1cc(C2CC(=O)c3ccccc3O2)ccc1O (stereo unspecified) | 138 |  |
| COc1cc(OC)c2c(c1)OC(c1cccc(O)c1)CC2=O (stereo unspecified) | 119 |  |
| O=C(Nc1ccccc1)Oc1cccc(C2CC(=O)c3ccccc3O2)c1 (stereo unspecified) | 38.8 |  |
| COc1cc(C2CC(=O)c3ccccc3O2)cc(OC)c1O (stereo unspecified) | 131 |  |
| COc1cc(OC)c2c(c1)OC(c1ccc(OC(=O)Nc3ccccc3)cc1)CC2=O (stereo unspecified) | 18.8 |  |
| COc1cc(OC)c2c(c1)OC(c1cc(OC)c(OC(=O)Nc3ccccc3)c([N+](=O)[O-])c1)CC2=O (stereo unspecified) | 18.2 |  |
| COc1cc(OC)c2c(c1)OC(c1ccc(OC(=O)Nc3ccccc3)c(OC)c1)CC2=O (stereo unspecified) | 12.8 |  |
| COc1ccc(C2CC(=O)c3ccccc3O2)cc1O (stereo unspecified) | 140 |  |
| COc1cc(OC)c2c(c1)OC(c1ccc(OC)c(O)c1)CC2=O (stereo unspecified) | 114 |  |
| COc1cc(OC)c2c(c1)OC(c1cc(OC)c(O)c(OC)c1)CC2=O (stereo unspecified) | 107 |  |
| O=C(Nc1ccccc1)Oc1ccc(C2CC(=O)c3ccccc3O2)cc1 (stereo unspecified) | 36.7 |  |
| O=C(Nc1ccccc1)Oc1ccccc1C1CC(=O)c2ccccc2O1 (stereo unspecified) | 39.9 |  |
| COc1cc(OC)c2c(c1)OC(c1ccc(OC)c(OC(=O)Nc3ccccc3)c1)CC2=O (stereo unspecified) | 16.3 |  |
| COc1cc(OC)c2c(c1)OC(c1cc(OC)c(O)c([N+](=O)[O-])c1)CC2=O (stereo unspecified) | 116 |  |
| O=C1CC(c2cccc(O)c2)Oc2ccccc21 (stereo unspecified) [3'-HYDROXYFLAVANONE] | 147 |  |
| COc1cc(OC)c2c(c1)OC(c1cc(OC)c(OC(=O)Nc3ccccc3)c(OC)c1)CC2=O (stereo unspecified) | 9.9 | Activity (Mus musculus [1]): Active; Time (Mus musculus [2]): 45.4 s; Time (Mus musculus [3]): 66.4 s; Time (Mus musculus [4]): 72.1 s; Time (Mus musculus [5]): 83.1 s; Time (Mus musculus [6]): 84.3 s; Time (Mus musculus [7]): 87.5 s |
| O=C1CC(c2ccccc2O)Oc2ccccc21 (stereo unspecified) [2'-HYDROXY-FLAVANONE] | 149 |  |
| O=C1CC(c2ccc(O)cc2)Oc2ccccc21 (stereo unspecified) [4'-HYDROXY-FLAVANONE] | 145 |  |
| COc1cc2c(cc1OC)C(=O)C(CC1CCN(Cc3ccccc3)CC1)C2 (stereo unspecified) |  | Activity (Mus musculus [8]): Active |
| COc1cc(OC)c2c(c1)OC(c1ccc(O)c(OC)c1)CC2=O (stereo unspecified) | 112 |  |

Reference: ChEMBL document CHEMBL3044994, “Synthesis and evaluation of novel carbamate-substituted flavanone derivatives as potent acetylcholinesterase inhibitors and anti-amnestic agents” (Med Chem Res, 2013)
